Tested on: Corynespora cassiicola
Experiment: Corynespora cassiicola (target leaf spot) growth inhibition in nutrient broth, microtiter plate
Type: cell-based
Settings: PDB broth, 24° C., photometric at 620 nm after 3-4 days, vs untreated check, read-out: % control of Corynespora cassiicola (inhibition of growth)
Method: Example 1: Corynespora Cassiicola (Target Leaf Spot) Conidia of the fungus from cryogenic storage were directly mixed into nutrient broth (PDB potato dextrose broth). A DMSO solution of the test compounds was placed into a microtiter plate (96-well format) and the nutrient broth containing the fungal spores was added to it. The test plates were incubated at 24° C. and the inhibition of growth (% control of Corynespora cassiicola) was determined photometrically after 3-4 days at 620 nm. The activity of a compound is derived by comparing the inhibition of growth in the treated test solution to the growth in the untreated check. The concentration of the compounds was 6.7, 2.2, 0.74, 0.25, and 0.082 ppm.

Row | SMILES | inhibition at 0.25 ppm | inhibition at 0.74 ppm | inhibition at 2.2 ppm | inhibition at 6.7 ppm
1 | CC1(C)N=C(c2cnc3c(F)cccc3c2)c2ccsc2C1(F)F [Ic, 7,7-Difluoro-4-(8-fluoro-3-quinolyl)-6,6-dimethyl-6,7-dihydro-1-thia-5-azaindene] | ≥ 20% | ≥ 50% | ≥ 70% | ≥ 70%
2 | Cc1cc(C2=NC(C)(C)C(F)(F)c3ccccc32)cnc1C(F)F [la, 5-(4,4-Difluoro-3,3-dimethyl-3,4-dihydro-1-isoquinolyl)-2-(difluoromethyl)-3-methylpyridine] | ≥ 20% | ≥ 50% | ≥ 70% | ≥ 70%
